The source of these data is paper PMC9324382 (Viruses, 2022).

For the assay, the target named is T1, SARS-CoV-2 M^pro (main protease) (Severe acute respiratory syndrome coronavirus 2, UniProt P0DTD1).
T1 construct: gene rep
Kind of assay: FRET peptide cleavage assay, Morrison fit. It counts as biochemical.

Each structure is given as a SMILES string.

Take `O=c1c(O)c(-c2ccc(O)c(O)c2)oc2cc(O)ccc12` [Fisetin]: the Ki is 41.8 ± 2.1 nM.

As usually defined, the Ki is a measure of affinity in units of concentration, obtained from inhibition or displacement. Low values mean a stronger hold on the target, high ones a looser hold on the target.
